pIC50: −log10 of the molar value.
Test system: 616215-338-R-J1-PDC complex spheroid viability
Test: Anticancer human tumor 616215-338-R-J1-PDC patient-derived colon adenocarcinoma cell line growth inhibition [RAS]
Conditions: for pIC50: curve of first compound; for viability, T/C: stronger effect = lower value; active means viability on the fitted dose curve at most 10% of control; inactive means the rest
Method in brief: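 Tumour cells grown as complex spheroids with HUVEC endothelial cells and mesenchymal stem cells, treated with RAS pathway inhibitor combinations. Each agent spans half-log steps from near clinical Cmax, or 10 microM where Cmax is unknown.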

[1] = second compound 0.000949 µM, first compound 0.000949 µM
[2] = second compound 0.000949 µM, first compound 0.003 µM
[3] = second compound 0.000949 µM, first compound 0.00949 µM
[4] = second compound 0.000949 µM, first compound 0.03 µM
[5] = second compound 0.000949 µM, first compound 0.0949 µM
[6] = second compound 0.000949 µM, first compound 0.3 µM
[7] = second compound 0.003 µM, first compound 0.000949 µM
[8] = second compound 0.003 µM, first compound 0.003 µM
[9] = second compound 0.003 µM, first compound 0.00949 µM
[10] = second compound 0.003 µM, first compound 0.03 µM
[11] = second compound 0.003 µM, first compound 0.0949 µM
[12] = second compound 0.003 µM, first compound 0.3 µM
[13] = second compound 0.00949 µM, first compound 0.000949 µM
[14] = second compound 0.00949 µM, first compound 0.003 µM
[15] = second compound 0.00949 µM, first compound 0.00949 µM
[16] = second compound 0.00949 µM, first compound 0.03 µM
[17] = second compound 0.00949 µM, first compound 0.0949 µM
[18] = second compound 0.00949 µM, first compound 0.3 µM
[19] = second compound 0.03 µM, first compound 0.000949 µM
[20] = second compound 0.03 µM, first compound 0.003 µM
[21] = second compound 0.03 µM, first compound 0.00949 µM
[22] = second compound 0.03 µM, first compound 0.03 µM
[23] = second compound 0.03 µM, first compound 0.0949 µM
[24] = second compound 0.03 µM, first compound 0.3 µM
[25] = second compound 0.0949 µM, first compound 0.000949 µM
[26] = second compound 0.0949 µM, first compound 0.003 µM
[27] = second compound 0.0949 µM, first compound 0.00949 µM
[28] = second compound 0.0949 µM, first compound 0.03 µM
[29] = second compound 0.0949 µM, first compound 0.0949 µM
[30] = second compound 0.0949 µM, first compound 0.3 µM
[31] = second compound 0.3 µM, first compound 0.000949 µM
[32] = second compound 0.3 µM, first compound 0.003 µM
[33] = second compound 0.3 µM, first compound 0.00949 µM
[34] = second compound 0.3 µM, first compound 0.03 µM
[35] = second compound 0.3 µM, first compound 0.0949 µM
[36] = second compound 0.3 µM, first compound 0.3 µM
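Further: spheroids exposed to agents for seven days before viability readout.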
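Wherever viability, T/C is given: 100% = DMSO vehicle control viability.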

CC1(C)CCC(Nc2ncc(C(F)(F)F)c(-c3c[nH]c4c(P(C)(C)=O)c(C#N)ccc34)n2)CN1 (centres undefined) + CCn1c(-c2cccnc2C(C)OC)c2c3cc(ccc31)N1CCOC(CC(NC(=O)C(C(C)C)N(C)C(=O)C3(F)CCN(C(=O)C#CC(C)(C)N(C)C)CC3)C(=O)N3CCCC(N3)C(=O)OCC(C)(C)C2)C1
7.80: pIC50 (second compound 0.000949 µM)
8.03: pIC50 (second compound 0.0949 µM)
inactive: viability, T/C [1] 108% | viability, T/C [2] 107% | viability, T/C [3] 62.8% | viability, T/C [4] 34.2% | viability, T/C [5] 33.9% | viability, T/C [6] 31.9% | viability, T/C [7] 107% | viability, T/C [8] 111% | viability, T/C [9] 60.2% | viability, T/C [10] 39.3% | viability, T/C [11] 32.2% | viability, T/C [12] 35.2% | viability, T/C [13] 113% | viability, T/C [14] 103% | viability, T/C [15] 57% | viability, T/C [16] 35.7% | viability, T/C [17] 32.9% | viability, T/C [18] 36.5% | viability, T/C [19] 115% | viability, T/C [20] 117% | viability, T/C [21] 57% | viability, T/C [22] 34.6% | viability, T/C [23] 32.9% | viability, T/C [24] 32.4% | viability, T/C [25] 119% | viability, T/C [26] 93% | viability, T/C [27] 50.3% | viability, T/C [28] 27.6% | viability, T/C [29] 31.2% | viability, T/C [30] 27.1% | viability, T/C [31] 95.1% | viability, T/C [32] 95.3% | viability, T/C [33] 44.8% | viability, T/C [34] 28.8% | viability, T/C [35] 28.4% | viability, T/C [36] 34.6%
7.88: pIC50 (second compound 0.03 µM)
7.82: pIC50 (second compound 0.003 µM)
7.86: pIC50 (second compound 0.00949 µM)
8.08: pIC50 (second compound 0.3 µM)

CCc1c2c(nc3ccc(O)cc13)-c1cc3c(c(=O)n1C2)COC(=O)[C@]3(O)CC + CCn1c(-c2cccnc2C(C)OC)c2c3cc(ccc31)N1CCOC(CC(NC(=O)C(C(C)C)N(C)C(=O)C3(F)CCN(C(=O)C#CC(C)(C)N(C)C)CC3)C(=O)N3CCCC(N3)C(=O)OCC(C)(C)C2)C1
8.09: pIC50 (second compound 0.0949 µM)
7.86: pIC50 (second compound 0.003 µM)
7.85: pIC50 (second compound 0.00949 µM)
8.04: pIC50 (second compound 0.3 µM)
inactive: viability, T/C [1] 105% | viability, T/C [2] 101% | viability, T/C [3] 56.8% | viability, T/C [4] 39% | viability, T/C [5] 32.6% | viability, T/C [6] 18.1% | viability, T/C [7] 97.9% | viability, T/C [8] 99% | viability, T/C [9] 56% | viability, T/C [10] 35.8% | viability, T/C [11] 30.6% | viability, T/C [12] 16.6% | viability, T/C [13] 107% | viability, T/C [14] 98.4% | viability, T/C [15] 58.1% | viability, T/C [16] 32% | viability, T/C [17] 30.1% | viability, T/C [18] 15.1% | viability, T/C [19] 111% | viability, T/C [20] 110% | viability, T/C [21] 58.7% | viability, T/C [22] 40.9% | viability, T/C [23] 30.8% | viability, T/C [24] 16.4% | viability, T/C [25] 99.9% | viability, T/C [26] 97.6% | viability, T/C [27] 41.9% | viability, T/C [28] 33.4% | viability, T/C [29] 30.2% | viability, T/C [30] 16.6% | viability, T/C [31] 103% | viability, T/C [32] 69% | viability, T/C [33] 48.1% | viability, T/C [34] 37.1% | viability, T/C [35] 26% | viability, T/C [36] 14.3%
7.79: pIC50 (second compound 0.03 µM)
7.82: pIC50 (second compound 0.000949 µM)

Reference: PubChem BioAssay AID2060898 (Molecular Pharmacology Branch, DTP, NCI, 2025)
